From article PMC7293822 (ACS chemical biology, 2018)
Numbered stars: 1 amine (or outer) side, 2 acyl side, 3 side chain; on linkers, the order of the positions; unused ones are H or OH. Ends that are not written are not given here. Peptide text beside a SMILES is read from it. * marks the point of attachment. Glutaryl = O=C(CCCC(=O)[*:2])[*:1]; AMC = Cc1cc(=O)oc2cc(N*)ccc12

What was measured:
bovine trypsin = molecular target: T1, bovine trypsin (Bos taurus, UniProt P00760); assay: Fluorescent protease assay with AMC substrates, trypsin; assay type: biochemical; conditions: 100 nM bovine trypsin, 50 μM substrate, 30 min, D-PBS, 2 mM DTT
T1 sequence (P00760 24-246): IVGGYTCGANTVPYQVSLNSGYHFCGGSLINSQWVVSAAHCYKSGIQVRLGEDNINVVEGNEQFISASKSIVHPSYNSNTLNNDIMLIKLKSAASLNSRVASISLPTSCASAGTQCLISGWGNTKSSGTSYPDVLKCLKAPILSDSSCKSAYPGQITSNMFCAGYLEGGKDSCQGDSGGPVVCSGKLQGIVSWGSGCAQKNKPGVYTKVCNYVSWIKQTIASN

Pd_dinase [1] = assay: Fluorescent protease assay with AMC substrates, Pd_dinase; assay type: biochemical, Parabacteroidetes distasonis; conditions: 8 nM Pd_dinase, 50 μM substrate, 30 min, D-PBS, 2 mM DTT
human aminopeptidase B = human aminopeptidase B (Homo sapiens, UniProt Q9H4A4); assay: Fluorescent protease assay with AMC substrates, aminopeptidase B; assay type: biochemical; conditions: 2 nM human aminopeptidase B, 50 μM substrate, 30 min, D-PBS, 2 mM DTT
Pd_dinase [2] = assay: Antimicrobial peptide digestion by Pd_dinase, LC-MS/MS; assay type: in vitro ADME, Parabacteroidetes distasonis
Staphylococcus aureus = conditions: cited from earlier work
Streptococcus pyogenes = conditions: cited from earlier work
E. coli = conditions: cited from earlier work
Pseudomonas aeruginosa = conditions: cited from earlier work
Pd_dinase [3] = assay: Pd_dinase; conditions: Parabacteroidetes distasonis, up to 30 min
aminopeptidase B = assay: human aminopeptidase B; conditions: up to 30 min
Pd_dinase [4] = assay: 10 nM of Pd_dinase incubated with each antimicrobial peptide; conditions: Parabacteroidetes distasonis, up to 1200 min
trypsin = assay: bovine trypsin; conditions: up to 30 min
Pd_dinase [5] = assay: Inhibition of Pd_dinase by peptide-AOMK inhibitors; assay type: biochemical, Parabacteroidetes distasonis; conditions: 50 μM inhibitor, 2 nM Pd_dinase, 50 μM substrate, activity monitored for 4 h

Chain of human aminopeptidase B (Q9H4A4 whole entry): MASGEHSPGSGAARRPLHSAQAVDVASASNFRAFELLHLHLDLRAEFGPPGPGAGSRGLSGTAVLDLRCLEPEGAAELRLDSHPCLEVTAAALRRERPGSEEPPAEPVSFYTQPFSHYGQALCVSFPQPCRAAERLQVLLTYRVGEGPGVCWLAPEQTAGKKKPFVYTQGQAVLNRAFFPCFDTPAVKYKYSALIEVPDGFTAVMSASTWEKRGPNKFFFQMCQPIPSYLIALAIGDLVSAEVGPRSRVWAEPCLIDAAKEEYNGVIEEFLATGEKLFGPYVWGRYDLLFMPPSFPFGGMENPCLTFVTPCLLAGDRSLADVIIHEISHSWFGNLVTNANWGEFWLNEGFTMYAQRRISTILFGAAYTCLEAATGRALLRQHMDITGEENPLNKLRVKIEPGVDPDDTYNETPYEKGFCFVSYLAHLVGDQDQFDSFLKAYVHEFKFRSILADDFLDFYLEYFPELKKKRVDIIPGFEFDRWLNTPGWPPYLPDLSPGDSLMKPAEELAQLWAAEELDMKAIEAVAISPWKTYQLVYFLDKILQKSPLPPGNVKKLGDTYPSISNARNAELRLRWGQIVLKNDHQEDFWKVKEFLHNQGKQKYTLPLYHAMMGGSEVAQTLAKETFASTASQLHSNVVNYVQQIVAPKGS

## Cc1cc(=O)oc2cc(NC(=O)[C@@H](N)CCCN=C(N)N)ccc12 [Arg-AMC, NH2-arginine-AMC]
Bovine trypsin
  cleavage of AMC substrate by trypsin: failed to hydrolyze
Pd_dinase [1]
  cleavage of AMC substrate by Pd_dinase: does not cleave
Human aminopeptidase B
  cleavage of AMC substrate by aminopeptidase B: only cleaved

## Cc1cc(=O)oc2cc(NC(=O)[C@H](CCCNC(=N)N)NC(=O)CN)ccc12 [Gly-Arg-AMC, NH2-Gly-Arg-AMC] (H-Gly-Arg-{AMC})
Pd_dinase [1]
  cleavage of AMC substrate by Pd_dinase: rapidly hydrolyzes

## AIGGGLSSVGGGS [KAMP-13]
Pd_dinase [2]; Parabacteroidetes distasonis, isolated protease Pd dinase (10 nM)
  metabolised at 20 h, 5 μM: 15.5%

## GGLSSVGGGSSTIK [KAMP-14]
Staphylococcus aureus
  bactericidal activity: bactericidal
Pd_dinase [2]; 10 nM Pd_dinase, 5 μM peptide, 5 to 1200 min, triplicate, LC-MS/MS
  degradation by Pd_dinase: degraded into a 12-mer peptide
Streptococcus pyogenes
  bactericidal activity: bactericidal
E. coli
  bactericidal activity: bactericidal
Pseudomonas aeruginosa
  bactericidal activity: bactericidal

## Glutaryl-Gly-Arg-{AMC}
Pd_dinase [3]
  not cleaved: does not cleave Glt-Gly-Arg-AMC
Aminopeptidase B
  not cleaved: aminopeptidase B only cleaved Arg-AMC

## Glutaryl-Gly-Arg-{AMC} [Glt-Gly-Arg-AMC]
Bovine trypsin
  rate of cleavage by trypsin relative to Gly-Arg-AMC: 80 fold
Pd_dinase [1]
  cleavage of AMC substrate by Pd_dinase: does not cleave

## H-AIGGGLSSVGGGS-OH
Pd_dinase [4]
  cleaved bond: Ile-G, minor
  fragment found: 9-mer peptide

## H-Gly-Arg-{AMC}
Aminopeptidase B
  not cleaved: aminopeptidase B only cleaved Arg-AMC

## NH2-arginine-AMC
trypsin
  not cleaved: failed to hydrolyze Arg-AMC
Pd_dinase [3]
  not cleaved: does not cleave Arg-AMC

## NH2-glycine-arginine-AOMK [Gly-Arg-AOMK]
Pd_dinase [5]
  effect on Pd_dinase activity: completely inhibited
